{"source": "ChEMBL document CHEMBL3639274", "about": "“Compounds for the treatment of neurodegenerative diseases” (2015)"}
{"biological_target": "Alpha-synuclein (Homo sapiens, UniProt P37840)", "experiment": "In order to assess relative binding affinities of the test compounds for aggregated α-synuclein, competition assays were set up with a radiolabeled molecule already known to bind to α-synuclein fibrils and non-radiolabeled test compounds. In order to induce its aggregation, α-synuclein was incubated in phosphate buffered saline (PBS, pH 7.4) at 37° C. for three days with shaking (1,400 rpm). Competitive binding assays were carried out in 12×75 mm borosilicate glass tubes.", "units": {"Ki": "µM"}}
{"smiles": "Oc1ccc(-c2cnc(-c3ccc(O)c(O)c3)o2)cc1O", "Ki": 0.659}
{"biological_target": "Microtubule-associated protein tau (Homo sapiens, UniProt P10636)", "sequence (P10636 whole entry)": "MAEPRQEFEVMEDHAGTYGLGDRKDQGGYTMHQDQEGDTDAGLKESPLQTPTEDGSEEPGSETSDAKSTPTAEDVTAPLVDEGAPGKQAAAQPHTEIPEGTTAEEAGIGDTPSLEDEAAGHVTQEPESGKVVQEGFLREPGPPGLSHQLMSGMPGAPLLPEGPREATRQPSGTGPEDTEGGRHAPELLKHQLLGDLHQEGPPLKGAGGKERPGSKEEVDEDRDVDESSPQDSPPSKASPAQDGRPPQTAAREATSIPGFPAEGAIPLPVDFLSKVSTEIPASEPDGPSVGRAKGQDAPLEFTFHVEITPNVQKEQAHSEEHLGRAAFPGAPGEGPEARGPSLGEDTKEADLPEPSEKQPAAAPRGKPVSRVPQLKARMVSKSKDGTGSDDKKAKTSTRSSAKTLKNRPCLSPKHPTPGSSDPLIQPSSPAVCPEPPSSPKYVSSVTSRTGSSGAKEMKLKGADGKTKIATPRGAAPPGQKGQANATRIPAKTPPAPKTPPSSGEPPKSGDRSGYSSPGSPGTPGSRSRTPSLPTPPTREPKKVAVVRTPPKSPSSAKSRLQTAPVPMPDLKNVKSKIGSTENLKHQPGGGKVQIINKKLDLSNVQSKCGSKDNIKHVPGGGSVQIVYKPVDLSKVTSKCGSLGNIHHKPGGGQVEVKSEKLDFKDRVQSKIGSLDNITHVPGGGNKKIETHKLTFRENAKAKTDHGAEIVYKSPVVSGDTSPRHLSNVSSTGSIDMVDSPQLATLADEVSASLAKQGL", "experiment": "Thio S Fluorometry Assay: The Thio S fluorometry assay as a primary screening method to identify tau protein aggregation inhibitors from our small molecule library. Aggregated tau fibrils were prepared in the presence of equimolar ratios of TauRD and heparin (10 μM each) in 20 mM Na-phosphate buffer, pH7.4. The reaction mixture was incubated at 37° C. with shaking (800-1000 rpm) for 22-24 hr (or for 3 days). In the Thio S inhibition assays, test compounds at 0, 0.1, 1, 10 and 100 μM were added at time 0 into the reaction containing TauRD and heparin. The same reaction mixture (+/− increasing concentrations of compounds) but without TauRD were also set up in parallel to serve as background controls. For all test compounds background fluorescence readings were very low, usually <5% of those of the TauRD-containing wells. For each compound, the IC50 was calculated using Prism version 5 software (GraphPad Software) by nonlinear regression [(Log [inhibitor] vs. normalized response; variable slope)].", "units": {"IC50": "µM"}}
{"smiles": "Oc1ccc(-c2cnc(-c3ccc(O)c(O)c3)o2)cc1O", "IC50": 117}
{"smiles": "CC(=O)N1N=C(c2ccc(O)c(O)c2)CC1c1ccc(O)c(O)c1", "note": "(stereo not drawn)", "IC50": 78.5}
{"smiles": "Oc1ccc(Cc2cc(O)c(O)cc2O)cc1O", "IC50": 5.2}
{"smiles": "Oc1ccc(-c2nsc(-c3ccc(O)c(O)c3)n2)cc1O", "IC50": 10.2}
{"smiles": "O=C(/C=C/c1ccc(O)c(O)c1)c1cc(O)c(O)cc1Br", "IC50": 21.2}
{"smiles": "O=C(/C=C/c1cc(O)c(O)cc1Br)c1ccc(O)c(O)c1", "IC50": 9.02}
{"smiles": "Oc1ccc(-c2cn(-c3ccc(O)c(O)c3)nn2)cc1O", "IC50": 34}
{"smiles": "Oc1ccc(-c2cc(Br)c(-c3ccc(O)c(O)c3)s2)cc1O", "IC50": 211}
{"smiles": "O=[N+]([O-])c1cc(-c2ccc(O)c(O)c2)ccc1-c1ccc(O)c(O)c1", "IC50": 24.7}
{"smiles": "Oc1ccc(-c2nc3cc(O)c(O)cc3o2)cc1O", "IC50": 7.34}
{"smiles": "O=C(/C=C/c1ccc(O)c(O)c1)c1ccc(O)c(O)c1", "IC50": 21.4}
{"smiles": "Oc1ccc(-c2nnc(-c3ccc(O)c(O)c3)o2)cc1O", "IC50": 3940}
